Tests used:
Test in all cases: relative viability (nuclei count vs DMSO), 5 days (fraction); higher = more cells survive
HOP-62 = test system: HOP-62
In short: (§1)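 Five library-drug doses in √10 steps were combined with a fixed anchor-drug dose, or a single drug was given alone, by pin tool to lung cancer cell lines in 1536-well plates the day after seeding. Nuclei were stained and counted after 5 days. Relative viability is the nuclei count in treated wells over that in vehicle wells, taken as the median of duplicate plates.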

EMC-BAC-2 = test system: EMC-BAC-2
In short: as §1

COR-L 105 = test system: COR-L 105
In short: as §1

NCI-H2405 = test system: NCI-H2405
In short: as §1

NCI-H1734 = test system: NCI-H1734
In short: as §1

COR-L23 = test system: COR-L23
In short: as §1

PC-14 = test system: PC-14
In short: as §1

NCI-H1993 = test system: NCI-H1993
In short: as §1

NCI-H1915 = test system: NCI-H1915
In short: as §1

HCC-78 = test system: HCC-78
In short: as §1

LK-2 = test system: LK-2
In short: as §1

NCI-H647 = test system: NCI-H647
In short: as §1

EKVX = test system: EKVX
In short: as §1

HCC-15 = test system: HCC-15
In short: as §1

NCI-H522 = test system: NCI-H522
In short: as §1

HCC-366 = test system: HCC-366
In short: as §1

201T = test system: 201T
In short: as §1

NCI-H661 = test system: NCI-H661
In short: as §1

A-427 = test system: A-427
In short: as §1

NCI-H460 = test system: NCI-H460
In short: as §1

BEN = test system: BEN
In short: as §1

SK-MES-1 = test system: SK-MES-1
In short: as §1

`CN1CCN(CCOc2cc(OC3CCOCC3)c3c(Nc4c(Cl)ccc5c4OCO5)ncnc3c2)CC1` [Saracatinib] + Nc1ncn([C@H]2C[C@H](O)[C@@H](CO)O2)c(=O)n1 [Decitabine] (partner 2 µM) gave a relative viability (HOP-62; first compound 0.02 µM) of 0.222, a relative viability (HOP-62; first compound 0.2 µM) of 0.188 and a relative viability (HOP-62; first compound 0.6325 µM) of 0.197. For the same compound, the relative viability (HOP-62; first compound 2 µM) was 0.185, the relative viability (EMC-BAC-2; first compound 0.02 µM) was 1.05 and the relative viability (EMC-BAC-2; first compound 0.2 µM) was 0.922. It also gave a relative viability (EMC-BAC-2; first compound 0.6325 µM) of 1.02, a relative viability (EMC-BAC-2; first compound 2 µM) of 0.91 and a relative viability (COR-L 105; first compound 0.02 µM) of 0.719. It also gave a relative viability (COR-L 105; first compound 0.2 µM) of 0.485, a relative viability (COR-L 105; first compound 0.6325 µM) of 0.635 and a relative viability (COR-L 105; first compound 2 µM) of 0.458. It also gave a relative viability (NCI-H2405; first compound 0.02 µM) of 0.698, a relative viability (NCI-H2405; first compound 0.2 µM) of 0.717 and a relative viability (NCI-H2405; first compound 0.6325 µM) of 0.583. For the same compound, the relative viability (NCI-H2405; first compound 2 µM) was 0.4, the relative viability (NCI-H1734; first compound 0.02 µM) was 0.524 and the relative viability (NCI-H1734; first compound 0.6325 µM) was 0.491. The relative viability (NCI-H1734; first compound 2 µM) was 0.475, the relative viability (COR-L23; first compound 0.02 µM) was 0.44 and the relative viability (COR-L23; first compound 0.2 µM) was 0.385. It also gave a relative viability (COR-L23; first compound 0.6325 µM) of 0.419, a relative viability (COR-L23; first compound 2 µM) of 0.335 and a relative viability (PC-14; first compound 0.02 µM) of 0.219. The relative viability (PC-14; first compound 0.2 µM) was 0.182, the relative viability (PC-14; first compound 0.6325 µM) was 0.158 and the relative viability (PC-14; first compound 2 µM) was 0.118. For the same compound, the relative viability (NCI-H1993; first compound 0.02 µM) was 0.63, the relative viability (NCI-H1993; first compound 0.2 µM) was 1.43 and the relative viability (NCI-H1993; first compound 0.6325 µM) was 0.521. For the same compound, the relative viability (NCI-H1993; first compound 2 µM) was 0.556, the relative viability (NCI-H1915; first compound 0.02 µM) was 0.245 and the relative viability (NCI-H1915; first compound 0.2 µM) was 0.264. The relative viability (NCI-H1915; first compound 0.6325 µM) was 0.255, the relative viability (NCI-H1915; first compound 2 µM) was 0.237 and the relative viability (HCC-78; first compound 0.02 µM) was 0.524. It also gave a relative viability (HCC-78; first compound 0.6325 µM) of 0.736, a relative viability (HCC-78; first compound 2 µM) of 0.686 and a relative viability (LK-2; first compound 0.02 µM) of 0.337. For the same compound, the relative viability (LK-2; first compound 0.2 µM) was 0.23, the relative viability (LK-2; first compound 0.6325 µM) was 0.172 and the relative viability (LK-2; first compound 2 µM) was 0.201. The relative viability (NCI-H647; first compound 0.02 µM) was 0.438, the relative viability (NCI-H647; first compound 0.2 µM) was 0.313 and the relative viability (NCI-H647; first compound 0.6325 µM) was 0.468. The relative viability (NCI-H647; first compound 2 µM) was 0.433, the relative viability (EKVX; first compound 0.02 µM) was 0.346 and the relative viability (EKVX; first compound 0.6325 µM) was 0.323. It also gave a relative viability (EKVX; first compound 2 µM) of 0.211, a relative viability (HCC-15; first compound 0.02 µM) of 0.73 and a relative viability (HCC-15; first compound 0.2 µM) of 0.62. It also gave a relative viability (HCC-15; first compound 0.6325 µM) of 0.605, a relative viability (HCC-15; first compound 2 µM) of 0.557 and a relative viability (NCI-H522; first compound 0.02 µM) of 0.737. For the same compound, the relative viability (NCI-H522; first compound 0.2 µM) was 0.665, the relative viability (NCI-H522; first compound 0.6325 µM) was 0.705 and the relative viability (NCI-H522; first compound 2 µM) was 0.627. It also gave a relative viability (HCC-366; first compound 0.02 µM) of 0.321, a relative viability (HCC-366; first compound 0.2 µM) of 0.148 and a relative viability (HCC-366; first compound 0.6325 µM) of 0.293. The relative viability (HCC-366; first compound 2 µM) was 0.194, the relative viability (201T; first compound 0.02 µM) was 0.832 and the relative viability (201T; first compound 0.2 µM) was 0.644. The relative viability (201T; first compound 0.6325 µM) was 0.75, the relative viability (201T; first compound 2 µM) was 0.71 and the relative viability (NCI-H661; first compound 0.02 µM) was 0.563. For the same compound, the relative viability (NCI-H661; first compound 0.2 µM) was 0.434, the relative viability (NCI-H661; first compound 0.6325 µM) was 0.534 and the relative viability (NCI-H661; first compound 2 µM) was 0.403. It also gave a relative viability (A-427; first compound 0.02 µM) of 0.533, a relative viability (A-427; first compound 0.2 µM) of 0.511 and a relative viability (A-427; first compound 0.6325 µM) of 0.593. The relative viability (A-427; first compound 2 µM) was 0.526, the relative viability (NCI-H460; first compound 0.02 µM) was 0.457 and the relative viability (NCI-H460; first compound 0.2 µM) was 0.242. The relative viability (NCI-H460; first compound 0.6325 µM) was 0.423, the relative viability (NCI-H460; first compound 2 µM) was 0.32 and the relative viability (BEN; first compound 0.02 µM) was 0.834. The relative viability (BEN; first compound 0.2 µM) was 0.778, the relative viability (BEN; first compound 0.6325 µM) was 0.747 and the relative viability (BEN; first compound 2 µM) was 0.628. For the same compound, the relative viability (SK-MES-1; first compound 0.02 µM) was 0.353, the relative viability (SK-MES-1; first compound 0.2 µM) was 0.352 and the relative viability (SK-MES-1; first compound 0.6325 µM) was 0.36. The relative viability (SK-MES-1; first compound 2 µM) was 0.203.
